The nature of this series: Viscosity at 25° C. with a Brookfield viscometer DV-I. In kind it is physicochemical.

The results in this text go back to patent US20200069552A1, “COSMETIC AND/OR DERMATOLOGICAL COMPOSITION, AND USES THEREOF IN THE COSMETIC FIELD AND IN THE ADJUVANT TREATMENT OF DERMATOLOGICAL PATHOLOGIES” (ISTITUTO GANASSINI S.P.A. DI RICERCHE BIOCHIMICHE, priority 2017, published 2020).

For `CC(=O)Oc1c(C)c(C)c2c(c1C)CCC(C)(CCC[C@H](C)CCC[C@H](C)CCCC(C)C)O2` (some centres unmarked) [Comp A, Vitamin E acetate], for the setting “25° C.”, the “viscosity, in words” value is recorded as “extremely fluid”. For the same molecule, the “Viscosity at 25° C.” value (Rotor G = 2, 10 rpm) is reported as 3200 cP.
